# Experimental data taken from paper PMC12310023 (PLOS Neglected Tropical Diseases, 2025).
# Like-named read-outs stand apart in the source and are kept apart here.
# Experiments:
# [1] = Plasma protein binding, equilibrium dialysis; conditions: human
# [2] = Plasma protein binding, equilibrium dialysis; conditions: rat
# Cl- channel (GABA-gated) = assay: Cerep binding assay
# [3] = Monkey PK (r15 PO 1, r16 IV 1 mg/kg); assay type: in vivo
# [4] = Plasma protein binding, equilibrium dialysis; conditions: bovine
# CYP1A2 [5] = assay: CYP Induction Assay in dog hepatocytes; conditions: 30 and 100 μM, 48 h
# [6] = system: C. parvum Bunch Grass Farms isolate; assay: Calibr high-content imaging Cryptosporidium panel; assay type: cell-based, Cryptosporidium parvum; conditions: Cryptosporidium parvum
# [7] = Liver microsome stability; conditions: monkey, pooled liver microsomes
# [8] = Liver microsome stability; conditions: human, pooled liver microsomes
# hERG = hERG (Homo sapiens, UniProt Q12809); assay: cell-based
# CYP2C9 = CYP2C9 (Homo sapiens, UniProt P11712); assay: biochemical
# zebrafish embryos = assay: Zebrafish developmental safety assay; conditions: 4 days
# [9] = Plasma protein binding, equilibrium dialysis; conditions: mouse
# [10] = Plasma levels in IFNγ-KO mouse efficacy model
# CYP1A2 [11] = biological target: T1, CYP1A2 (Homo sapiens, UniProt P05177); assay: CYP reaction phenotyping, recombinant supersomes
# T1 sequence (P05177 1-516): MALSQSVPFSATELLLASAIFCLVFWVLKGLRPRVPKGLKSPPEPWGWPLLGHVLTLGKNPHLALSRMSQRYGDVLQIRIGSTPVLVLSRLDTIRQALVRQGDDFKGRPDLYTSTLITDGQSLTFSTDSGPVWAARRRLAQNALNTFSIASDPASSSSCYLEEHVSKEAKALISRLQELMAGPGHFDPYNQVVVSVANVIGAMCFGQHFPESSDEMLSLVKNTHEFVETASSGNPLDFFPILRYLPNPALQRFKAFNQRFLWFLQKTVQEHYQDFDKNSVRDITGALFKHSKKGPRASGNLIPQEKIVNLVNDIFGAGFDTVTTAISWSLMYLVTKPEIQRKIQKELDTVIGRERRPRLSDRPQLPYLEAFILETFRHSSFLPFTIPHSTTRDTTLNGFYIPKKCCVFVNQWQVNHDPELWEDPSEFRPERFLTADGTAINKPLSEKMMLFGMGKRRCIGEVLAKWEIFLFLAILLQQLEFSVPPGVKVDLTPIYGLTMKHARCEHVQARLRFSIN
# Salmonella bacteria = assay: microAmes (μAmes) test
# CYP2C8 = biological target: T2, CYP2C8 (Homo sapiens, UniProt P10632); assay: in vitro; conditions: recombinant CYP2C8 supersomes
# T2 sequence (P10632 1-490): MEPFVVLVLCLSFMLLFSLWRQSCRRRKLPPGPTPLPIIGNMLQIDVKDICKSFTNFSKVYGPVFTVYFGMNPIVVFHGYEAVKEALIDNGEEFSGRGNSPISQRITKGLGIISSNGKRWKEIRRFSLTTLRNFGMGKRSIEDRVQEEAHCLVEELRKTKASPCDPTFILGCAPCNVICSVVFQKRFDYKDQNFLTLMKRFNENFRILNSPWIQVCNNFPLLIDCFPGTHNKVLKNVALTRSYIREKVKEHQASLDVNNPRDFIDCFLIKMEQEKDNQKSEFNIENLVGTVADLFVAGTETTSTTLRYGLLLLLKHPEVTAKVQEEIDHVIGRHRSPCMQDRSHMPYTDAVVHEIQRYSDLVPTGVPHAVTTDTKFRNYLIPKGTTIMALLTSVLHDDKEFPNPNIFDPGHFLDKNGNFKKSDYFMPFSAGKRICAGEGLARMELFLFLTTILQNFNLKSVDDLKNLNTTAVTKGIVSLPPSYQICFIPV
# CYP2D6 = CYP2D6 (Homo sapiens, UniProt P10635); assay: in vitro; conditions: recombinant CYP2D6 supersomes
# Cytotoxicity = conditions: human, HEPG2 hepatocyte cell line
# NLuc C. parvum = NLuc C. parvum growth in HCT-8 cells (UW); assay type: cell-based; conditions: Cryptosporidium parvum
# [12] = Balb/c, mouse, plasma, iv, 1 mg/kg
# [13] = Balb/c, mouse, plasma, po, 30 mg/kg
# CYP2D6, sequence (P10635 whole entry): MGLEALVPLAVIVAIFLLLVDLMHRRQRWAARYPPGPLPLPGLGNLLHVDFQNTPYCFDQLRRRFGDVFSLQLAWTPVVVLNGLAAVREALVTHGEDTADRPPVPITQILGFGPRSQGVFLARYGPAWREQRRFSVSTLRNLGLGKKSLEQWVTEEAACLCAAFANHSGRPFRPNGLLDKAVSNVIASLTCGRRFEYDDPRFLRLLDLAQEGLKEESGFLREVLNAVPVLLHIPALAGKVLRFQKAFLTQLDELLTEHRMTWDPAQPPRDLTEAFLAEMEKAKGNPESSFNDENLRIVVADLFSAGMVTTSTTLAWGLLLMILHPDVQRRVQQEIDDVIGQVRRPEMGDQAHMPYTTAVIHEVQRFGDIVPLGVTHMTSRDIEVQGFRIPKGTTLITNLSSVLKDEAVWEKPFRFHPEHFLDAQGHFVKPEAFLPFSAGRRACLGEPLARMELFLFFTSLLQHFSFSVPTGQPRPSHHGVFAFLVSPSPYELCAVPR
# hERG, sequence (Q12809 whole entry): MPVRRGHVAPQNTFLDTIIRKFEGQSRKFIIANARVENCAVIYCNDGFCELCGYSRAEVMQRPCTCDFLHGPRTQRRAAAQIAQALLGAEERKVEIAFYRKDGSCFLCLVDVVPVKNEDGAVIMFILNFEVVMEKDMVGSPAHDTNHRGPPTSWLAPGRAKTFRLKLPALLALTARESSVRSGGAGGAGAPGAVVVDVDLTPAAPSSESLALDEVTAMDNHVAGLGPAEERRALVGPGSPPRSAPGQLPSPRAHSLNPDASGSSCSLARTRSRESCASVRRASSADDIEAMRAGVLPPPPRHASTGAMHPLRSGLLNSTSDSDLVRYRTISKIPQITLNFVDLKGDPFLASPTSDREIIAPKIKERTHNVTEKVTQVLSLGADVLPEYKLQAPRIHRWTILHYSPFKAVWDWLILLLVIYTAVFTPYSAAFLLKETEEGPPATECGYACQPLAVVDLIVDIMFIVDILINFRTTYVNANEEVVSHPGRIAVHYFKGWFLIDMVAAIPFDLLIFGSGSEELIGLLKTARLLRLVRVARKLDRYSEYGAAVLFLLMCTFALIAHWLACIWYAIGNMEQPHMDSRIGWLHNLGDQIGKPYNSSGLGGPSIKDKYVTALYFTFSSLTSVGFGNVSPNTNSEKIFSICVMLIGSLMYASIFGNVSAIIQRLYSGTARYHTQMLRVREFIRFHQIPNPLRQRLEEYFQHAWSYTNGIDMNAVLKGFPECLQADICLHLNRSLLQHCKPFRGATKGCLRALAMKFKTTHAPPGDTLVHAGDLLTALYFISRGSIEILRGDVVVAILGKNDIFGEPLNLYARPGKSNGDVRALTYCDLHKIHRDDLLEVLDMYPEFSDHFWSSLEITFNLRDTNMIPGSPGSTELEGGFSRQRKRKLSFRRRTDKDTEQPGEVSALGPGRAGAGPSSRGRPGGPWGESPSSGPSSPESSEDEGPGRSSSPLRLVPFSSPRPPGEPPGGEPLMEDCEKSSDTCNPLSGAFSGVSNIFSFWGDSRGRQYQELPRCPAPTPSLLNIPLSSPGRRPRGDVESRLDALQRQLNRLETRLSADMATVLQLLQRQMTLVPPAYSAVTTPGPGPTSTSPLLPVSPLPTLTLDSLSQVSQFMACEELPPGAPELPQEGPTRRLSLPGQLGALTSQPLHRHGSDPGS
# CYP2C9, sequence (P11712 whole entry): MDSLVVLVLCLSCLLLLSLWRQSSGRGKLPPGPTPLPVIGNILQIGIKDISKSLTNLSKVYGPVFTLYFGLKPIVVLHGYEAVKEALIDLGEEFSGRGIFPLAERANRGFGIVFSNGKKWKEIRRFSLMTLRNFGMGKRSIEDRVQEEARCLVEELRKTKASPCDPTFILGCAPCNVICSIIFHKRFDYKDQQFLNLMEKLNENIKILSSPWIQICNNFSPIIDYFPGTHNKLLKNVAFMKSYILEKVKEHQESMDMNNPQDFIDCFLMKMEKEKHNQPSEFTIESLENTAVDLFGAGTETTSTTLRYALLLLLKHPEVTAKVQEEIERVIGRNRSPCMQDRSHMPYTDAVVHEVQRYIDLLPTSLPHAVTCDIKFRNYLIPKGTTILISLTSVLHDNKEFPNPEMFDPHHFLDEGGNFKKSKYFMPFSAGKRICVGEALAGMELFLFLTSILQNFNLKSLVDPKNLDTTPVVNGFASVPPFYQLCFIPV
compound,measurement,setting,value
CC1(C)Cn2nc(-c3ccc4cc(OC5CC5)ccc4c3)c(C(N)=O)c2NC1O (stereo not drawn) [M2],fraction unbound,[1],0.04
same,fraction unbound,[2],0.06
same,IC50,Cl- channel (GABA-gated),17000 nM
same,% inhibition of control specific binding,"Cl- channel (GABA-gated); 10 μM, antagonist radioligand, mean",50.6%
same,M2 AUC0-inf,[3]; after BKI-1708 IV 1 mg/kg,63 ± 9 µmol·min/L
same,M2 AUC0-inf,[3]; after BKI-1708 PO 1 mg/kg,58 ± 13 µmol·min/L
same,C0,"Mouse PK, Balb/c; [12]",4.2 ± 1.3 µM
same,Vd,"Mouse PK, Balb/c; [12]",0.9 L/kg
same,clearance,"Mouse PK, Balb/c; [12]",6.2 mL/min/kg
same,half-life,"Mouse PK, Balb/c; [12]",1.77 h
same,Cmax,"Mouse PK, Balb/c; [13]",13.1 ± 1.3 µM
same,Tmax,"Mouse PK, Balb/c; [13]",1.5 h
same,bioavailability,"Mouse PK, Balb/c; [13]",43%
same,half-life,"Mouse PK, Balb/c; [13]",3.07 h
same,AUC0-inf,"Mouse PK, Balb/c; M2 IV 1 mg/kg",400 ± 42 µmol·min/L
same,AUC0-inf,"Mouse PK, Balb/c; M2 PO 30 mg/kg",5185 ± 1500 µmol·min/L
same,M2 AUC0-inf,"Mouse PK, Balb/c; after BKI-1708 IV 3 mg/kg",988 ± 162 µmol·min/L
same,M2 AUC0-inf,"Mouse PK, Balb/c; after BKI-1708 PO 15 mg/kg",6445 ± 654 µmol·min/L
same,fraction unbound,[4],0.05
same,induction of CYP1A2,CYP1A2 [5],strong inducers
same,EC50,[6],320 nM
same,EC90,[6],770 nM
same,EC50,"[6]; read-out: Bunch Grass Farm C. parvum Count EC50, Crypto Panel 3 Replicate 1",388 nM
same,EC50,"[6]; read-out: Bunch Grass Farm C. parvum Count EC50, Crypto Panel 3 Replicate 2",247 nM
same,EC90,"[6]; read-out: Bunch Grass Farm C. parvum Count EC90, Replicate 1",966 nM
same,EC90,"[6]; read-out: Bunch Grass Farm C. parvum Count EC90, Replicate 2",569 nM
same,CLint scaled,[7],55 mL/min/kg
same,half-life,[7],0.95 h
same,microsomal CLint,[7],48.6 µL/min/mg
same,CLint scaled,[8],< 25 mL/min/kg
same,half-life,[8],> 2 h
same,microsomal CLint,[8],< 23.1 µL/min/mg
same,IC50,hERG,6200 nM
same,IC50,CYP2C9,> 40000 nM
same,concentration up to which zebrafish embryo development was not affected,zebrafish embryos,20 µM
same,fraction unbound,[9],0.04
same,peak plasma exposure,[10]; M2 8 mg/kg x 3 days,3.0 ± 1.0 µM
same,peak plasma level,[10]; M2 15 mg/kg x 3 days,6.8 ± 1.2 µM
same,peak plasma level,[10]; M2 30 mg/kg x 3 days,7.7 ± 3.6 µM
same,% contribution,CYP1A2 [11],47.0%
same,CLint,CYP1A2 [11],0.115 µL/min/pmol
same,μAmes test result,Salmonella bacteria,negative
same,CLint scaled,CYP2C8,< 1.78 mL/min/kg
same,half-life,CYP2C8,> 4 h
same,CLint scaled,CYP2D6,< 0.183 mL/min/kg
same,half-life,CYP2D6,> 4 h
same,CC50,Cytotoxicity,13400 nM
same,EC50,NLuc C. parvum,730 nM
